Values of other authors in patent US9060929B2, “Alprostadil for treatment of premature ejaculation” (Nexmed Holdings, Inc., priority 2003, dated 2015).
Like-named read-outs stand apart in the source and are kept apart here.

Tests used:
[1] = test system: men with premature ejaculation and/or erectile dysfunction
[2] = test system: patients with PE; details: 6 months

| SMILES | latency to ejaculation ([1]; PE and PE+ED group taken together, p=0.007) | latency to ejaculation ([1]; PE+ED group, p=0.03) | ejaculation latency after treatment ([2]; PE group, 50 mg sertraline four hours before sex) | ejaculation latency after treatment ([2]; PE+ED group (sildenafil-treated), 50 mg sertraline) |
| --- | --- | --- | --- | --- |
| CNCCC(Oc1ccc(C(F)(F)F)cc1)c1ccccc1 (stereo not shown) [fluoxetine] | increased significantly | increased significantly |  |  |
| CN[C@H]1CC[C@@H](c2ccc(Cl)c(Cl)c2)c2ccccc21 [sertraline] |  |  | 247.2 s | 111.6 s |
